Here are results for 3 compounds from patent US11040085B2, “Pharmaceutical composition containing F1 polypeptide and/or F3 polypeptide and use thereof” (priority 2016, dated 2021).

One data set deals with condyloma acuminate. To be noted: topical application of 5% emulsion; cited from earlier work.
For the next data set, the system named is Hela cells. The experiment in a line: MTT assay, growth of human cervical carcinoma cells (HELA) in vitro. The class given is cell-based. The conditions noted are these: different dosages, overnight, MTT assay (FIG. 7).
A further data set has as its system NP69 cells. The experiment in a line: MTT assay, immortalized normal cells NP69. To be noted: different concentrations, incubated overnight, MTT assay (FIG. 1D). The class given is cell-based. As for the experimental part:
Immortalized normal cells NP69 were used in another experiment. More specifically, 100 μL of 5×10^3 NP69 cells cultured in a RPMI medium containing 10% of calf serum were added into a 96-well cell culture plate, the F1 polypeptide, the F3 polypeptide, and control polypeptide P3 (FIG. 1D) with different concentrations were added respectively and incubated overnight in an incubator with 5% of CO2 at 37° C., and the cell proliferation was determined by a MTT assay.
For orientation: Tetrazolium assays rely on reduction of a dye to a coloured formazan, in cell work by metabolically active cells.

In another data set the test system is tumor. To be noted: M. A. Apponyi, et al., Peptides, 2004, 25, 1035; cited from earlier work.
For another data set, the system named is IL-6. Kind of data set: IL-6 level in TC-1 culture solution by ELISA. The conditions noted are these: for change of IL-6 levels with increase of concentration: 5 μg/mL to 10 μg/mL, overnight (FIG. 12A, 12B); for IL-6 level in TC-1 culture solution: 5 μg/mL, overnight, vs untreated solution or P3 polypeptide (FIG. 12A). The class given is cell-based, mouse. How it is done:
FIGS. 12A and 12B are graphs illustrating IL-6 levels (detected by ELISA) in TC-1 culture solutions treated by 5 μg/mL and 10 μg/mL of the P3 polypeptide, the F1 polypeptide, the F3 polypeptide, and a mixture of F1 and F3 overnight, respectively. […] IL-6 levels were decreased with increase of concentration of the F1 polypeptide, the F3 polypeptide, or the mixture of F1 and F3, which may be resulted from apoptosis of TC-1 cells induced by high concentration of the F1 polypeptide, the F3 polypeptide, or the mixture of F1 and F3.
In general terms: ELISA stands for enzyme-linked immunosorbent assay.

Data set [1] relates to TC-1 cells. The experiment in a line: Stability in vitro (Tests 1-3), MTT assay on TC-1 cells. The format is cell-based, mouse. To be noted: for inhibiting effect on growth of TC-1 cells at 72th hour: Test 1, 10 μg/ml, incubated 72 hours (FIG. 10A); for activity after being prepared and stored for 7 days: Test 2, stored at minus 20° C. before using, 10 μg/ml, 24 hours incubation (FIG. 10B); for activity in PBS with a pH value of 5.5: Test 3, 10 μg/ml; for activity in PBS with a pH value of 5.5 / activity in PBS heated at 100° C.: 24 hours incubation (FIG. 10C); for activity in PBS heated at 100° C.: Test 3, PBS heated 10 minutes at 100° C. before using. How it is done:
RPMI medium containing 10% of calf serum and 5×10^3 TC-1 cells were added into a 96-well cell culture plate; 10 μg/ml of the F1 polypeptide, the F3 polypeptide, and a mixture of F1 and F3 in a ratio of 1:1 were added respectively into the medium and incubated for 72 hours in an incubator with 5% of CO2 at 37° C., and the cell proliferations at 24th hour, 48th hour, and 72th hour were determined respectively by the MTT assay.
The steps in the Test 2 were substantially the same as those in the Test 1, except that the F1 polypeptide and the F3 polypeptide which had been prepared and stored for 0, 1, 3, 5, and 7 days at minus 20° C. respectively before using were added into the medium, and the incubation was performed for 24 hours.
The steps in the Test 3 were substantially the same as those in the Test 1, except that the pH value of the phosphate buffer saline (PBS) in the medium was changed or the PBS is heated for 10 minutes at 100° C. before using, and the incubation was performed for 24 hours. Referring to FIG. 10C, it can be seen that the F1 polypeptide and the F3 polypeptide were still active even in the PBS with a pH value of 5.5 or heated at 100° C.

Data set [2] deals with TC-1 cells. The class given is cell-based. To be noted: different concentrations, incubated overnight, MTT assay (FIG. 1A-1C). As for the experimental part: More specifically, in the method, 100 μL of 5×10^3 TC-1 cells cultured in a RPMI medium containing 10% of calf serum were added into a 96-well cell culture plate, the F1 polypeptide (FIG. 1A), the F3 polypeptide (FIG. 1B), and control polypeptide P3 (FIG. 1C) with different concentrations were added respectively and incubated overnight in an incubator with 5% of CO2 at 37° C., and the cell proliferation was determined by a MTT assay.
100 μL of 5×10^3 TC-1 cells cultured in a RPMI medium containing 10% of calf serum were added into a 96-well cell culture plate, 5 μg/mL of F1 and/or F3 and control polypeptides P3 and F4 were added respectively and incubated overnight in an incubator with 5% of CO2 at 37° C., and the cell proliferation was determined by a MTT assay.
100 μL of 5×10^3 TC-1 cells cultured in a RPMI medium containing 10% of calf serum were added into a 96-well cell culture plate, 5 μg/mL of F1 and/or F3 and/or Imiquimod were added respectively and incubated overnight in an incubator with 5% of CO2 at 37° C., and the cell proliferation was determined by a MTT assay.

Data set [3] has as its system TC-1 cells. The experiment in a line: Interaction of FITC-labeled polypeptide with TC-1 cell (flow cytometry, confocal microscopy). The class given is cell-based, mouse. The conditions noted are these: 2 μg/mL FITC-labeled polypeptide, flow cytometry (FIG. 5A). As for the experimental part:
The separated protein was digested by trypsin, polypeptides produced from the digestion was labeled by iTRAQ 4-plex reagents, and the labeled polypeptides were quantitatively analyzed by using a system combining a nano high performance liquid chromatography and a triple time of flight mass spectrometer. […] Besides, the F3 polypeptide and a control polypeptide P3 were labeled by fluorescent dye fluorescein isothiocyanate (FITC), incubated together with TC-1 cells for different periods, and repeatedly washed, thereafter a fluorescence intensity of FITC in the TC-1 cell was detected by a flow cytometry (FIG. 5A).
1000 μL of 5×10^5 TC-1 cells cultured in a RPMI medium containing 10% of calf serum were added into a 24-well cell culture plate, 2 μg/mL of the F3 polypeptide labeled by FITC was added into the cells being incubated, cells at different time points of the incubation were collected and washed with PBS buffer solution, and then the relationship between the F3 polypeptide and TC-1 cell was observed by a flow cytometer (FIG. 5A) or a confocal microscopy (FIG. 5B).

`CC(C)Cn1cnc2c(N)nc3ccccc3c21` [Imiquimod]: in the data set on condyloma acuminate, the recurrence rate result was “about 10%”. The “inhibiting effect on growth of Hela cells in vitro” value with Hela cells is “inhibiting effect”.
In the case of “F1 polypeptide: polypeptide of SEQ ID NO: 1, sequence found in tree frog secretion, made by solid phase peptide synthesis; Caerin polypeptide (GLLSVLGSVAKHVLPHVVPVIAEHL; the sequence is synthesized)”, in the data set with NP69 cells, the “inhibiting effect on NP69 cells” value was “no inhibiting effect”. Moreover, the effect on tumor result in the data set on tumor is “inhibiting effect on tumor”. Moreover, in the data set with IL-6, the “change of IL-6 levels with increase of concentration” value is “decreased” and the “IL-6 level in TC-1 culture solution” value is “significantly higher”. Further, in the data set on TC-1 cells [1], the “inhibiting effect on growth of TC-1 cells at 72th hour” value is “significant inhibiting effects”; the “activity after being prepared and stored for 7 days” value was “not reduced”; the “activity in PBS with a pH value of 5.5” value was “still active”; the “activity in PBS heated at 100° C.” value is “still active”. In addition, the “inhibiting effect on growth of TC-1 cells” value in the data set on TC-1 cells [2] is recorded as “obvious inhibiting effects”.
“F3 polypeptide: polypeptide of SEQ ID NO: 2, sequence found in tree frog secretion, made by solid phase peptide synthesis; Caerin polypeptide (GLFGVLGSIAKHLLPHVVPVIAEKL; the sequence is synthesized)”: the “inhibiting effect on NP69 cells” value in the data set on NP69 cells is “no inhibiting effect”. Further, in the data set on IL-6, the “change of IL-6 levels with increase of concentration” value is “decreased” and the “IL-6 level in TC-1 culture solution” value was “significantly higher”. Further, in the data set with TC-1 cells [3], the “time at which FITC was found in TC-1 cell” value turned out to be 15 min and the “time of peak fluorescence intensity of FITC in TC-1 cell” value turned out to be 2 h. In the data set with TC-1 cells [1], the “inhibiting effect on growth of TC-1 cells at 72th hour” value was “significant inhibiting effects”; the “activity after being prepared and stored for 7 days” value is “not reduced”; the “activity in PBS with a pH value of 5.5” value is given as “still active”; the “activity in PBS heated at 100° C.” value is listed as “still active”. The “inhibiting effect on growth of TC-1 cells” value in the data set with TC-1 cells [2] is recorded as “obvious inhibiting effects”.
